Reference: EP0267050B1, “Aerosols containg liposomes and method for their preparation” (priority 1986, dated 1988)

What was measured:
cells in culture = details: cited from earlier work
[1] = Plasma concentration after I.V. doses; type: in vivo, dogs
Method: (§1) Effects on cats and dogs. […] Plasma concentrations of enviroxime were 3.0, 8.9 and 19 µg/mL following these I.V. doses. Bioassay (antiviral) and biochemical assay of blood yielded similar results.

rhinoviruses = details: all rhinoviruses tested; generally range; cited from earlier work
[2] = test system: primary antibody response; type: in vivo; details: mice
[3] = Animal tolerance: effects of oral doses in mice; type: in vivo
[4] = Animal tolerance: cardiovascular effects in cats; type: in vivo
Method: as §1

[5] = Animal tolerance: diastolic blood pressure in dogs; type: in vivo; details: following 1, 3, and 10 mg/kg I.V. doses
Method: as §1

coxsackieviruses = details: cited from earlier work
echoviruses = details: cited from earlier work
prostaglandin E2 = experiment: Effects in vitro on muscle: receptor activation; parameters: species or system rats; details: rat muscle in vitro, 10⁻⁵ to 10⁻⁸M
Method: (§2) Effects in vitro on muscle. Muscle from many organs of rats was tested with 10⁻⁵ to 10⁻⁸M enviroxime.

adrenergic = experiment: Effects in vitro on muscle: receptor activation; parameters: species or system rats; details: rat muscle in vitro, 10⁻⁵ to 10⁻⁸M
Method: as §2

histamine = experiment: Effects in vitro on muscle: receptor activation; parameters: species or system rats; details: rat muscle in vitro, 10⁻⁵ to 10⁻⁸M
Method: as §2

polioviruses = details: cited from earlier work
[6] = Animal tolerance: effects on electrolytes and urine output; type: in vivo; details: rats
Description: Effects on electrolytes. […] The oliguria was associated with increases in potassium in serum but not sodium.

[7] = cited from earlier work
[8] = test system: Muscle from many organs of rats; experiment: Effects in vitro on muscle: antagonism of dose response curves; details: rat muscle in vitro, 10⁻⁵ to 10⁻⁸M; similar to that of potassium chloride
Method: as §2

[9] = associated with the oliguria at 25 mg/kg and above

Structure (SMILES): CC(C)S(=O)(=O)n1c(N)nc2ccc(/C(=N/O)c3ccccc3)cc21 [enviroxime]
- Maximum tolerated concentrations for cells in culture (cells in culture): 4 to 100 µg/mL
- Plasma concentrations ([1]; following 1 mg/kg I.V. dose): 3000 ng/mL
- Plasma concentrations ([1]; following 3 mg/kg I.V. dose): 8900 ng/mL
- Plasma concentrations ([1]; following 10 mg/kg I.V. dose): 19000 ng/mL
- inhibitory concentrations (rhinoviruses): 0.3 to 0.9 µg/mL
- immune suppressive activity on primary antibody response [2]: no immune suppressive activity
- effects in mice ([3]; 50 mg/kg orally): no detectable effects
- effects in mice ([3]; higher doses, 100-400 mg/kg): increasing leg weakness, decreased motor activity and gait disturbances
- onset of the effect of high doses ([3]; mice, high doses): within a few minutes
- tolerance of oral doses ([3]; oral doses up to 100 mg/kg, a number of other tests): well tolerated
- cardiovascular effects [4]: no significant cardiovascular effects
- diastolic blood pressure [5]: some stepwise depression
- activity against coxsackieviruses (coxsackieviruses): active
- activity against echoviruses (echoviruses): active
- activation of prostaglandin E2 receptors (prostaglandin E2): did not activate
- activation of adrenergic receptors (adrenergic): did not activate
- activation of histamine receptors (histamine): did not activate
- activity against polioviruses (polioviruses): active
- potassium in serum [6, 9]: increases
- sodium in serum [6, 9]: not
- oliguria ([6]; dose of 25 mg/kg and above): significant oliguria
- soluble in water [7]: 1 to 2 µg/mL
- antagonism of dose response curves [8]: some non-competitive antagonism
